Tests used:
[1] = Binding affinity to 5'-FAM-labeled to NRAS RNA G-quadruplex 5'-r(UGUGGGAGGGGCGGGUCUGGG)-3' (unknown origin) assessed as dissociation constant by fluorescence quenching assay
SK-MEL-2 = assay: Cytotoxicity against human SK-MEL-2 cells expressing NRAS mutant assessed as cell growth inhibition incubated for 48 hrs by MTT assay; assay type: functional, cell-based; conditions: SK-MEL-2, 48 h

Compound | Kd [1] | IC50 (SK-MEL-2)
CCCCCCCCN=c1ccn(CCCCCCn2ccc(=NCCCCCCCC)cc2)cc1 | 320 nM | 1.77 µM
CCCCCNc1cc[n+](CCCC[n+]2ccc(NCCCCC)cc2)cc1 | 1660 nM | > 25 µM
CCCCCCNc1cc[n+](CCCCCC[n+]2ccc(NCCCCCC)cc2)cc1 | 740 nM | 8.61 µM
CCCCCNc1cc[n+](CCCCCC[n+]2ccc(NCCCCC)cc2)cc1 | 1290 nM | > 25 µM
CCCCCCCCNc1cc[n+](CCCC[n+]2ccc(NCCCCCCCC)cc2)cc1 | 1340 nM | 5.61 µM
CCCNc1cc[n+](CCCC[n+]2ccc(NCCC)cc2)cc1 | 210 nM | –
CCCNc1cc[n+](CCCCCC[n+]2ccc(NCCC)cc2)cc1 | 2990 nM | –
CCCCCCNc1cc[n+](CCCC[n+]2ccc(NCCCCCC)cc2)cc1 | 760 nM | 17.3 µM
CCCNc1cc[n+](CCCCCCCCCC[n+]2ccc(NCCC)cc2)cc1 | 1720 nM | 8.36 µM
